Experimental data taken from the NIST ThermoML archive (doi:10.1021/je500672d).
Numbers after ± are expanded uncertainties.

Conditions: 298.15 K; 101.33 kPa; Liquid; Vibrating tube method

| mass density | Compound |
| --- | --- |
| 786.4 ± 0.4 kg/m3 | CO [methanol] |
| 927.7 ± 0.5 kg/m3 | COC(C)=O [methyl ethanoate] |

| Compound | mass density |
| --- | --- |
| COP(=O)([O-])OC.Cn1cc[n+](C)c1 [1,3-dimethylimidazolium dimethylphosphate] | 1257.8 ± 1.4 kg/m3 |
